The source made the active and inactive calls. No cut-off for these calls is given here.

Type in all cases: functional, cell-based
Experiment [1] concerns the target T1, Free fatty acid receptor 1 (Homo sapiens, UniProt O14842). Briefly: Agonist activity at human GPR40/FFA1 expressed in CHO cells assessed as increase in calcium flux at 1 uM by Fluo-8 AM dye based FLIPR method relative to 10 uM GW9508. (Calcium assays in cells follow changes in intracellular calcium, usually with a dye or a luminescent sensor.)
For experiment [2], the target named is T1, Free fatty acid receptor 1. Briefly: Agonist activity at human GPR40/FFA1 expressed in CHO cells assessed as increase in calcium flux at 1 uM by Fluo-8 AM dye based FLIPR method.
Experiment [3] concerns the target T2, Free fatty acid receptor 3 (Homo sapiens) (UniProt O14843).
T2 sequence (whole entry): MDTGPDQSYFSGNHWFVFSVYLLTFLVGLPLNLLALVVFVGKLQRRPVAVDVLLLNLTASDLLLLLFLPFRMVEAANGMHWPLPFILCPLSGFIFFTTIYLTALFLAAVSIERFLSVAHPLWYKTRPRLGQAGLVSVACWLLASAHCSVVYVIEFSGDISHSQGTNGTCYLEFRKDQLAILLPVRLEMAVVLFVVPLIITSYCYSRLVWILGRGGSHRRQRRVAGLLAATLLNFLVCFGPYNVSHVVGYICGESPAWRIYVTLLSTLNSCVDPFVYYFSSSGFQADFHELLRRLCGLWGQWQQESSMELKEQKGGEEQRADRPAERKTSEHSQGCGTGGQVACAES
As to the kind of experiment: Agonist activity at GPR41/FFA3 (unknown origin) expressed in CHO cells assessed as increase in calcium flux at 10 uM by Fluo-8 AM dye based FLIPR method.

The target in experiment [4] is T3, Free fatty acid receptor 2 (Homo sapiens) (UniProt O15552).
T3 sequence (whole entry): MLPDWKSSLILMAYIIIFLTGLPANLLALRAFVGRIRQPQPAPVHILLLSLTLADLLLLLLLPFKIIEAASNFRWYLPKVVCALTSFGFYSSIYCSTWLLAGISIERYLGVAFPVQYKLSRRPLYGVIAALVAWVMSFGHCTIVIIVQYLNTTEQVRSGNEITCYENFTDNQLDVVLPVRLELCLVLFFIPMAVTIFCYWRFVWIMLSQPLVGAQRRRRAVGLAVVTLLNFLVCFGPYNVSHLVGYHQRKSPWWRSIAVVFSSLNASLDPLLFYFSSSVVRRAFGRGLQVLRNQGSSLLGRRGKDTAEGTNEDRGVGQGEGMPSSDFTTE
Briefly: Agonist activity at GPR43/FFA2 (unknown origin) expressed in CHO cells assessed as increase in calcium flux at 10 uM by Fluo-8 AM dye based FLIPR method.

In experiment [5] the target is T4, Free fatty acid receptor 4 (Homo sapiens) (UniProt Q5NUL3).
T4 sequence (whole entry): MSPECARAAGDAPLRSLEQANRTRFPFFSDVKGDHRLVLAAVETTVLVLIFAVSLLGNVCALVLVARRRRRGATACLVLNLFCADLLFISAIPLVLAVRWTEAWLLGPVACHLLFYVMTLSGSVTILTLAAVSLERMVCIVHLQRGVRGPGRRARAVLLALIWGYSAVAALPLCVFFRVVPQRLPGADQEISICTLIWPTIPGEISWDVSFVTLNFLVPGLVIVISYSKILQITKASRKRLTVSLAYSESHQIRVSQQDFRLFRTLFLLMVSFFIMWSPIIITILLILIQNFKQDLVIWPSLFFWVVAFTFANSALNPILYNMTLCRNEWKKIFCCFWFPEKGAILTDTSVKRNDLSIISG
Briefly: Agonist activity at GPR120/FFA4 (unknown origin) expressed in CHO cells assessed as increase in calcium flux at 10 uM by Fluo-8 AM dye based FLIPR method.

T1 sequence (O14842 whole entry): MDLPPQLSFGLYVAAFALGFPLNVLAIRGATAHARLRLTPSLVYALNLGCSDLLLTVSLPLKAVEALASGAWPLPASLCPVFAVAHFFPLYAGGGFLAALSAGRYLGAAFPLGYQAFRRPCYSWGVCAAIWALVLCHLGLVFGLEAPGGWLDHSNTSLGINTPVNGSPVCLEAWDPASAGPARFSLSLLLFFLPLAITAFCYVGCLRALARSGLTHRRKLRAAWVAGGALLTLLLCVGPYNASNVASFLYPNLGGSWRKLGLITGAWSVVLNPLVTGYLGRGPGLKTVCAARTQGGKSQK

On to `Cc1ccc(OCc2nnc(C(=O)Nc3ccc(CCC(=O)O)cc3)s2)c(C)c1`, for which, in experiment [1], the Activity turned out to be 74.7%. The EC50 (in general, the concentration at which the effect is half-maximal) in experiment [2] is 2.54 µM. The result in experiment [3], in experiment [4] and in experiment [5] was inactive.

In the case of `Cc1ccc(OCc2nnc(C(=O)Nc3ccc(CCC(=O)O)cc3)s2)cc1`, the Activity in experiment [1] is 76.9%. Moreover, in experiment [2], the concentration for a half-maximal effect (EC50) stood at 2.17 µM. The outcome in experiment [3], in experiment [4] and in experiment [5] was inactive.

As to `O=C(O)CCc1ccc(NC(=O)c2nnc(CC(c3ccccc3)c3ccc4c(c3)OCO4)s2)cc1` (centres undefined), in experiment [1], the Activity stood at 60.3%. The concentration giving a half-maximal response (EC50) in experiment [2] was 4.12 µM. Also, the outcome in experiment [3], in experiment [4] and in experiment [5] was inactive.

For `Cc1cccc(NC(=O)c2nnc(C(=O)Nc3ccc(OCC(=O)O)cc3)s2)c1`, the Activity in experiment [1] came to 6%. For the same molecule, the EC50 in experiment [2] was > 10 µM.

As to `O=C(O)COc1ccc(NC(=O)c2nnc(C(=O)Nc3ccccc3)s2)cc1`, the Activity in experiment [1] turned out to be 7.8%. Besides, the EC50 in experiment [2] was > 10 µM.

In the case of `O=C(O)CCc1ccc(NC(=O)c2nnc(Cc3cccc(F)c3)s2)cc1`, the Activity in experiment [1] amounted to 60.3%. For the same molecule, in experiment [2], the EC50 came out at 5.02 µM. Besides, the outcome in experiment [3], in experiment [4] and in experiment [5] was inactive.

Regarding `O=C(O)CCc1ccc(NC(=O)c2nnc(CC(c3ccccc3)c3ccccc3F)s2)cc1` (centres undefined), in experiment [1], the Activity is 68.6%. Further, the EC50 in experiment [2] turned out to be 1.02 µM. Moreover, the outcome in experiment [3], in experiment [4] and in experiment [5] was inactive.

As for `O=C(O)CCc1ccc(NC(=O)c2nnc(COc3cccc(Cl)c3)s2)cc1`, the Activity in experiment [1] stood at 82.9%. The EC50 in experiment [2] was found to be 1.57 µM. Besides, the result in experiment [3], in experiment [4] and in experiment [5] was inactive.

As to `COc1ccc(C)cc1NC(=O)c1nnc(C(=O)Nc2ccc(OCC(=O)O)cc2)s1`, the Activity in experiment [1] was 6.6%. For the same molecule, the EC50 in experiment [2] was > 10 µM.

As to `O=C(O)COc1ccc(NC(=O)c2nnc(C(=O)Nc3ccc(Br)cc3)s2)cc1`, the Activity in experiment [1] amounted to 5.9%. For the same molecule, the EC50 in experiment [2] is > 10 µM.

As for `CCOC(=O)c1cccc(NC(=O)c2nnc(C(=O)Nc3ccc(OCC(=O)O)cc3)s2)c1`, the Activity in experiment [1] came out at 6.4%. Further, the half-maximal effective concentration (EC50) in experiment [2] was > 10 µM.

As for `Cc1cccc(NC(=O)c2nnc(C(=O)Nc3ccc(OCC(=O)O)cc3)s2)c1C`, the Activity in experiment [1] came out at 6.6%. Further, the EC50 in experiment [2] is > 10 µM.

Regarding `O=C(O)CCc1ccc(NC(=O)c2nnc(Cc3ccc(Cl)cc3)s2)cc1`, the Activity in experiment [1] is 72.3%. Besides, the half-maximal effective concentration (EC50) in experiment [2] was determined as 2.39 µM. The outcome in experiment [3], in experiment [4] and in experiment [5] was inactive.

Regarding `Cc1ccc(NC(=O)c2nnc(C(=O)Nc3ccc(OCC(=O)O)cc3)s2)cc1C`, the Activity in experiment [1] was 2.8%. The EC50 in experiment [2] is > 10 µM.

For the molecule `Cc1ccccc1OCc1nnc(C(=O)Nc2ccc(CCC(=O)O)cc2)s1`, the Activity in experiment [1] worked out at 89.9%. Moreover, the EC50 in experiment [2] came to 1.52 µM. Also, the result in experiment [3], in experiment [4] and in experiment [5] was inactive.

As for `O=C(O)CCc1ccc(NC(=O)c2nnc(CC(c3ccccc3)c3ccc(Cl)cc3)s2)cc1` (centres undefined), the Activity in experiment [1] is 84.9%. Moreover, the concentration for a half-maximal effect (EC50) in experiment [2] was found to be 2.71 µM. For the same molecule, the outcome in experiment [3], in experiment [4] and in experiment [5] was inactive.

In the case of `Cc1nnc(NC(=O)c2nnc(C(=O)Nc3ccc(OCC(=O)O)cc3)s2)s1`, the Activity in experiment [1] is 9.8%. For the same molecule, the EC50 in experiment [2] was > 10 µM.

For `COc1cccc(NC(=O)c2nnc(C(=O)Nc3ccc(OCC(=O)O)cc3)s2)c1`, the Activity in experiment [1] came to 9.2%. Besides, the EC50 in experiment [2] was > 10 µM.

Take `O=C(O)CCc1ccc(NC(=O)c2nnc(Cc3ccccc3)s2)cc1`: in experiment [1], the Activity turned out to be 70.1%. For the same molecule, in experiment [2], the half-maximal effective concentration (EC50) was 3.67 µM. In addition, the result in experiment [3], in experiment [4] and in experiment [5] was inactive.

`O=C(O)COc1ccc(NC(=O)c2nnc(C(=O)Nc3ccc(F)cc3)s2)cc1`: in experiment [1], the Activity amounted to 6%. Further, the EC50 in experiment [2] was > 10 µM.

`O=C(O)CCc1ccc(NC(=O)c2nnc(COc3ccc(F)cc3)s2)cc1`: in experiment [1], the Activity was 48.5%. For the same molecule, the EC50 in experiment [2] amounted to 5.39 µM. For the same molecule, the outcome in experiment [3], in experiment [4] and in experiment [5] was inactive.

`CCc1ccc(OCc2nnc(C(=O)Nc3ccc(CCC(=O)O)cc3)s2)cc1`: the Activity in experiment [1] amounted to 74.4%. Further, the EC50 in experiment [2] was found to be 1.17 µM. In addition, the outcome in experiment [3], in experiment [4] and in experiment [5] was inactive.

With `CCOC(=O)c1ccc(NC(=O)c2nnc(C(=O)Nc3ccc(OCC(=O)O)cc3)s2)cc1`, in experiment [1], the Activity worked out at 9.4%. The EC50 in experiment [2] was > 10 µM.

`O=C(O)COc1ccc(NC(=O)c2nnc(C(=O)Nc3ccccc3F)s2)cc1`: the Activity in experiment [1] is 6%. The concentration for a half-maximal effect (EC50) in experiment [2] is > 10 µM.

Consider `Cc1ccccc1NC(=O)c1nnc(C(=O)Nc2ccc(OCC(=O)O)cc2)s1`, for which the Activity in experiment [1] worked out at 6.6%. The EC50 in experiment [2] was > 10 µM.

On to `O=C(O)CCc1ccc(NC(=O)c2nnc(COc3cccc(C(F)(F)F)c3)s2)cc1`, for which, in experiment [1], the Activity was determined as 70.1%. In experiment [2], the EC50 stood at 3.09 µM. The outcome in experiment [3], in experiment [4] and in experiment [5] was inactive.

In the case of `Cc1ccc(C)c(OCc2nnc(C(=O)Nc3ccc(CCC(=O)O)cc3)s2)c1`, the Activity in experiment [1] worked out at 88.2%. Further, the EC50 in experiment [2] was found to be 1.53 µM. For the same molecule, the outcome in experiment [3], in experiment [4] and in experiment [5] was inactive.

Regarding `COc1ccc(OCc2nnc(C(=O)Nc3ccc(CCC(=O)O)cc3)s2)cc1`, the Activity in experiment [1] amounted to 72.5%. Also, in experiment [2], the EC50 was determined as 2.43 µM. Further, the outcome in experiment [3], in experiment [4] and in experiment [5] was inactive.

Regarding `O=C(O)COc1ccc(NC(=O)c2nnc(C(=O)Nc3ccc(F)cc3F)s2)cc1`, in experiment [1], the Activity was found to be 6.6%. The EC50 in experiment [2] is > 10 µM.

Turning to `Cc1cccc(OCc2nnc(C(=O)Nc3ccc(CCC(=O)O)cc3)s2)c1`, the Activity in experiment [1] came out at 82.4%. Moreover, in experiment [2], the EC50 was 3.26 µM. For the same molecule, the outcome in experiment [3], in experiment [4] and in experiment [5] was inactive.

In the case of `Cc1ccc(NC(=O)c2nnc(C(=O)Nc3ccc(OCC(=O)O)cc3)s2)cc1`, in experiment [1], the Activity was 7%. Also, the EC50 in experiment [2] was > 10 µM.

For `O=C(O)COc1ccc(NC(=O)c2nnc(C(=O)Nc3ccc(Cl)cc3)s2)cc1`, in experiment [1], the Activity amounted to 4.2%. Also, the half-maximal effective concentration (EC50) in experiment [2] was > 10 µM.

As to `O=C(O)COc1ccc(NC(=O)c2nnc(C(=O)Nc3ccc(F)c(F)c3)s2)cc1`, the Activity in experiment [1] stood at 6.6%. Also, in experiment [2], the EC50 was > 10 µM.

(Values after ChEMBL document CHEMBL4190352, “Continued SAR exploration of 1,2,4-thiadiazole-containing scaffolds in the design of free fatty acid receptor 1 (GPR40) agonists” (Eur J Med Chem, 2017).)
